From patent publication US20250282812A1, “ANTIVIRAL NUCLEOSIDE ANALOGUE, AND PHARMACEUTICAL COMPOSITION AND USE THEREOF” (SHANGHAI INSTITUTE OF MATERIA MEDICA , CHINESE ACADEMY OF …, priority 2022, published 2025)

Experiments:
[1] = Pharmacokinetic evaluation in rats (Test Example 1); format: in vivo; conditions: rat, nucleoside X28-1 in plasma, male SD rats, single iv 10.0 mg/kg
Description: Male SD rats, divided into intravenous (iv) and intragastric (po) groups, were fasted for 16 h before the experiment (the intravenous group was not fasted), with free access to water, and were fed together 2 h after administration. Compound X28-1 was intravenously injected at a dose of 10.0 mg/kg (n=3), and compounds X22, X51, and X102 (n=3) were intragastrically administered in equimolar amounts to X28-1, which were 15.5 mg/kg, 16.5 mg/kg, and 16.6 mg/kg, respectively, with a vehicle of 5% DMSO+5% enthanol+40% PEG400+50% saline. 0.2-0.3 mL of blood was collected via the jugular vein at 5 min (intravenous only), 0.25 h, 0.5 h, 1.0 h, 2.0 h, 4.0 h, 6.0 h, 8.0 h, and 24 h after administration. The blood samples were transferred into heparin sodium anticoagulation tubes, gently mixed uniformly, and centrifuged at 2000 g for 10 min. Plasma was isolated and frozen in a refrigerator at −70° C. for later detection. The concentration of nucleoside X28-1 in the plasma was determined by the LC-MS-MS method and pharmacokinetic parameters were calculated.

[2] = Pharmacokinetic evaluation in rats (Test Example 2); format: in vivo; conditions: rat, nucleoside X28-1 in plasma, male SD rats, single iv 5.0 mg/kg
Description: A total of 12 male SD rats, divided into intravenous (IV) and intragastric (PO) groups, were fasted for 12 h before the experiment (the intravenous group was not fasted), with free access to water, and were fed together 2 h after administration. Compound X28-1 was intragastrically administered at a dose of 10.0 mg/kg (n=3) and intravenously injected at a dose of 5.0 mg/kg (n=3), and both compound X52 and compound X55 were intragastrically administered at a dose of 18.0 mg/kg (n=3), with a vehicle of 5% DMSO+5% enthanol+40% PEG400+50% saline. For the intravenous group, 0.2-0.3 mL of blood was collected via the jugular vein at 5 min, 0.25 h, 0.5 h, 1.0 h, 2.0 h, 4.0 h, 8.0 h, and 24.0 h after administration, and for the intragastric group, at 5 min, 0.5 h, 1.0 h, 2.0 h, 4.0 h, 6.0 h, 8.0 h, and 24.0 h after administration. The blood samples were transferred into heparin sodium anticoagulation tubes, gently mixed uniformly, and centrifuged at 2000 g for 10 min. Plasma was isolated and frozen in a refrigerator at −70° C. for later detection. The concentration of nucleoside X28-1 in the plasma was determined by the LC-MS-MS method and pharmacokinetic parameters were calculated.

[3] = Pharmacokinetic evaluation in cynomolgus monkeys (Test Example 5); format: in vivo; conditions: cynomolgus monkey, nucleoside X28-1 in plasma, male cynomolgus monkeys, single iv 1.0 mg/kg
Description: Male cynomolgus monkeys were fasted for 12 h before intragastric administration, with free access to water, and were fed together 2 h after administration. X28-1 was intravenously administered at a dose of 1.0 mg/kg (n=3) and intragastrically administered at a dose of 5.0 mg/kg (n=3), and X219 hydrochloride was intragastrically administered at a dose of 10.7 mg/kg (n=3), with a vehicle for the compounds of 5% DMSO+5% enthanol+40% PEG400+50% saline. 0.5 mL of blood was collected via the forelimb vein at 5 min (intravenous only), 0.25 h, 0.5 h, 1.0 h, 2.0 h, 4.0 h, 6.0 h, 8.0 h, and 24.0 h after administration. The blood samples were transferred into heparin sodium anticoagulation tubes, gently shaken and mixed uniformly, put on ice, and immediately centrifuged (4° C., 2000 g, 10 min). After centrifugation, 100 μL of plasma was accurately pipetted and added to a plastic tube containing 400 μL of methanol solution with an internal standard, temporarily stored on dry ice after being vortexed, and then stored in an ultra-low temperature refrigerator for later detection. The concentration of nucleoside X28-1 in the plasma was determined by the LC-MS-MS method and pharmacokinetic parameters were calculated.

[4] = system: influenza virus (IFV) A/California/07/2009 (H1N1) pdm09 strain; assay: In vitro activity against influenza virus (CPE, CCK8, MDCK cells); format: cell-based; conditions: 120 h, read-out: IFV (MDCK) EC50
[5] = system: respiratory syncytial virus (RSV) A long strain; assay: In vitro activity against respiratory syncytial virus (CPE, CCK8, HEp-2 cells); format: cell-based; conditions: human respiratory syncytial virus, 120 h, MOI=0.02, 5 days
SFTSV-Nluc [6] = assay: microbe, parasite or virus in culture; format: cell-based, severe fever with thrombocytopenia syndrome virus (SFTSV); conditions: Severe fever with thrombocytopenia syndrome virus, Vero, 48 h
[7] = system: wild-type SFSV virus (SFTSV-WT); format: in vivo; conditions: A129 mice infected with SFTSV-WT; X28-1 20 mpk intragastric once daily Day 0 to Day 6
SFTSV-Nluc [8] = system: SFTSV-Nluc; design: species or system A129 mice; conditions: mouse
[9] = system: respiratory syncytial virus (RSV A2); assay: In vivo efficacy for respiratory syncytial virus (RSV) in mice
in vitro = conditions: dog
[10] = Cytotoxicity in HEp-2 cells (CCK8); conditions: human
[11] = Stability test of compounds in solutions at different pH values

O=c1ccn([C@@H]2O[C@](F)(CO)[C@@H](O)[C@H]2O)c(=O)[nH]1 [Compound X28-1, reference compound]
AUC(0-inf) [1]: 22100 ng·h/mL | AUC(0-t) [1]: 20000 ng·h/mL | Cmax [1]: 8080 ng/mL | half-life [1]: 6.9 h | MRT inf ([1]; read-out: MRT0-∞): 8.33 h | AUC(0-inf) [2]: 8690 ng·h/mL | AUC(0-t) [2]: 8290 ng·h/mL | Cmax [2]: 2620 ng/mL | half-life [2]: 6.09 h | MRT inf ([2]; read-out: MRT0-∞): 6.89 h | AUC(0-inf) [3]: 3720 ng·h/mL | AUC(0-t) [3]: 3610 ng·h/mL | half-life [3]: 5.38 h | MRT inf ([3]; read-out: MRT0-∞): 4.21 h | EC50 [4]: < 0.37 µM | EC50 [5]: 6.06 µM | EC50 (SFTSV-Nluc [6]): 0.8 µM | inhibition at 10 µM (SFTSV-Nluc [6]; read-out: Inhibition rate (10 μM)): 95.3% | change in the body weight [7]: no significant change | survival rate [7]: 100% | in vivo fluorescence imaging, fluorescence intensity on ventral and dorsal side (SFTSV-Nluc [8]): negligible fluorescence intensity | change in the body weight (SFTSV-Nluc [8]; in vivo, 20 mg/kg): no significant change | in vitro imaging of spleen, kidneys, liver and intestine: fluorescence intensity compared with the SFTSV-Nluc vehicle group (SFTSV-Nluc [8]; in vivo, 20 mg/kg): significantly weaker | spleen/body weight ratio and kidney/body weight ratio (SFTSV-Nluc [8]; in vivo, 20 mg/kg): consistent with those in the blank control group | survival rate (SFTSV-Nluc [8]; in vivo, 20 mg/kg): 100% | viral titer and copy number in the spleen and kidney compared with the SFTSV-Nluc vehicle group (SFTSV-Nluc [8]; in vivo, 20 mg/kg): significantly reduced | reduction in the pulmonary viral load compared with the vehicle group ([9]; 10 mpk intragastric once daily, Day 4): about 0.4 log10 | change in the body weight ([9]; RSV A2-infected BALB/C mice, X219 hydrochloride 20 mpk or X28-1 10 mpk intragastric once daily): began to show an increase in the body weight on Day 3 | CC50 (in vitro): > 10 µM | CC50 at 5 days [10]: > 10 µM | Content reduction (%) ([11]; buffered saline solution pH 4.0, 3 h): 5.7% | Content reduction (%) ([11]; buffered saline solution pH 4.0, 6 h): 12.2% | Content reduction (%) ([11]; buffered saline solution pH 4.0, 9 h): 17.5% | Content reduction (%) ([11]; buffered saline solution pH 4.0, 12 h): 22.2% | Content reduction (%) ([11]; buffered saline solution pH 4.0, 15 h): 26.9% | Content reduction (%) ([11]; buffered saline solution pH 4.0, 18 h): 30.3% | Content reduction (%) ([11]; buffered saline solution pH 4.0, 21 h): 35.9% | Content reduction (%) ([11]; buffered saline solution pH 4.0, 24 h): 40.1% | Content reduction (%) ([11]; buffered saline solution pH 6.8, 3 h): 8.0% | Content reduction (%) ([11]; buffered saline solution pH 6.8, 6 h): 15.3% | Content reduction (%) ([11]; buffered saline solution pH 6.8, 9 h): 22.0% | Content reduction (%) ([11]; buffered saline solution pH 6.8, 12 h): 28.3% | Content reduction (%) ([11]; buffered saline solution pH 6.8, 15 h): 33.4% | Content reduction (%) ([11]; buffered saline solution pH 6.8, 18 h): 38.0% | Content reduction (%) ([11]; buffered saline solution pH 6.8, 21 h): 42.9% | Content reduction (%) ([11]; buffered saline solution pH 6.8, 24 h): 46.9%
